The values below are quoted from earlier work in patent US12616197B2, “Three-dimensional printing” (PERIDOT PRINT LLC, priority 2021, dated 2026).

In brackets after ≈: the same amount, converted by molar mass. Read-outs that look alike come from different tables or passages of the source.

Take cyanocobalamin: the solubility in water (water) was 1000 mg/80 mL.
For `Cc1cc2nc3c(=O)[nH]c(=O)nc-3n(C[C@H](O)[C@H](O)[C@H](O)CO)c2cc1C` [riboflavin], under “water, depending on the crystal structure”, the solubility in water is recorded as 1000 mg/3,000-15,000 mL.
With `Cc1ncc(CO)c(CO)c1O.Cl` [pyridoxine hydrochloride], the solubility in water is on record as 200 mg/mL.
For the compound `Cc1ncc(CO)c(CN)c1O` [pyridoxamine], the solubility in water (water) is listed as 29 mg/mL (≈ 172 mM).
